Measured values published in patent publication US20250327110A1, “HIGH THROUGHPUT MULTIPLEXED SERUM BASED BACTERICIDAL ASSAYS (SBAs), AND KITS FOR USE THEREIN” (priority 2024, published 2025).

Columns and labels:
[1] = test system: SNP0006 (flexneri 6, parent CCH060); experiment: antibiotic sensitivity of mSBA target strain SNP0006; assay type: cell-based, Shigella flexneri; settings: strain SNP0006 (flexneri 6)
Source text: (§1) Strains 2457T (S. flexneri 2a) and SNP0006 (S. flexneri 6) were made resistant to streptomycin and nalidixic acid, respectively, by natural selection as previously described (Burton, R. L. and M. H. Nahm, “Development and validation of a fourfold multiplexed opsonization assay (MOPA4) for pneumococcal antibodies”, Clin Vaccine Immunol, 2006. 13(9): p. 1004-9). Strain J17B (S. flexneri 3a) was made kanamycin resistant by transduction with a nadC:kan fusion gene with P1 phage (Prunier, A. L., et al., “Genetic structure of the nadA and nadB antivirulence loci in Shigella spp.”, J Bacteriol, 2007. 189(17): p. 6482-6), which was obtained from a S. flexneri 2a strain (BS655) (personal communication with Dr. C. Turnbough at UAB).
(§2) To prepare working stocks for the target strains, primary stocks were streaked onto blood agar plates and incubated at 37° C./5% CO2. After overnight culture, multiple colonies were transferred to liquid culture medium (Todd-Hewitt broth with 0.5% yeast extract) and grown at 37° C. until cultures reached an OD600 of 0.5-1.4. After reaching the desired OD, glycerol was added to a final concentration of 16%, and 0.5-ml aliquots were prepared and stored at ≤−60° C. until needed. Each WS was tested to confirm the antibiotic sensitivity/resistance profile and to determine the optimal dilution of bacteria to use for the assay.
(§3) All target strains were tested individually in assay conditions for growth on plates containing antibiotics.

S. sonnei strain Moseley = assay type: cell-based, Shigella sonnei; settings: for Antibiotic Sensitivity: strain Moseley (sonnei); for antibiotic resistance screening: strain Moseley, natural resistance
Source text: as §1, §2, §3

[2] = test system: SNP0004 (flexneri 3a, parent J17B); experiment: antibiotic sensitivity of mSBA target strain SNP0004; assay type: cell-based, Shigella flexneri; settings: strain SNP0004 (flexneri 3a)
Source text: as §1, §2, §3

[3] = test system: SNP0001 (flexneri 2a, parent 2457T); experiment: antibiotic sensitivity of mSBA target strain SNP0001; assay type: cell-based, Shigella flexneri; settings: strain SNP0001 (flexneri 2a)
Source text: as §1, §2, §3

SMILES | Antibiotic Sensitivity [1] | Antibiotic Sensitivity (S. sonnei strain Moseley) | antibiotic resistance screening (S. sonnei strain Moseley) | Antibiotic Sensitivity [2] | Antibiotic Sensitivity [3]
C[C@H]1c2cccc(O)c2C(O)=C2C(=O)[C@]3(O)C(O)=C(C(N)=O)C(=O)[C@@H](N(C)C)[C@@H]3[C@@H](O)[C@@H]21 [Dox, doxycycline] | S | R | naturally resistant | S | S
NC[C@H]1O[C@H](O[C@H]2[C@H](O)[C@@H](O[C@H]3O[C@H](CO)[C@@H](O)[C@H](N)[C@H]3O)[C@H](N)C[C@@H]2N)[C@H](O)[C@@H](O)[C@@H]1O [Kan, kanamycin] | S | S |  | R | S
CCn1cc(C(=O)O)c(=O)c2ccc(C)nc21 [NA, nalidixic acid] | R | S | sensitive | S | S
[H]/N=C(/N)N[C@H]1[C@H](O)[C@@H](O)[C@H](O[C@@H]2O[C@@H](C)[C@](O)(C=O)[C@H]2O[C@@H]2O[C@@H](CO)[C@H](O)[C@@H](O)[C@@H]2NC)[C@@H](N/C(N)=N\[H])[C@@H]1O [Strep, streptomycin] | S | S | sensitive | S | R
